# From paper PMC6167049, “Structural and catalytic properties of the peroxygenase P450 enzyme CYP152K6 from Bacillus methanolicus” (Journal of Inorganic Biochemistry, 2018)
# Legend:
# CYP152K6 [1] = molecular target: T1, CYP152K6 (Bacillus methanolicus, UniProt I3DZK9); experiment: X-band EPR and UV-visible spectroscopy; format: binding; conditions: ferric enzyme; EPR at 10 K, 1 and 2 mM ligand; UV-visible with 400 μM ligand, pH 8.0, 25 °C; H2O2-driven turnover also tested
# T1 construct: gene cypC; codon-optimised synthetic gene in pET24b, E. coli BL21 (DE3); N-terminal 6xHis-tag cut with TEV protease; monomer; 417 residues in crystal model; co-purifies with tetradecanoic acid
# T1 sequence (I3DZK9 whole entry): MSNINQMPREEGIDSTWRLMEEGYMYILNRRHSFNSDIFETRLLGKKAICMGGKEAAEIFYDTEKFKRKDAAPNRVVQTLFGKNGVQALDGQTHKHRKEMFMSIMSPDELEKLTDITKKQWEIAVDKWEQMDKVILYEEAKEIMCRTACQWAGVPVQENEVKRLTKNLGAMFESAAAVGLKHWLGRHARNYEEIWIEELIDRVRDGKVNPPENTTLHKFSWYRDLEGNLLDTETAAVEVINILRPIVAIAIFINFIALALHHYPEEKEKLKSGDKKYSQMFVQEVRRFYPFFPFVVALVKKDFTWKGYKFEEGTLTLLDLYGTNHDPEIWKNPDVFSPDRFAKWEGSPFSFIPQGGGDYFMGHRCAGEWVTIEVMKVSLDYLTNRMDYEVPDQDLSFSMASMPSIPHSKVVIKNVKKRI
# CYP152K6 [2] = molecular target: T1, CYP152K6; experiment: X-ray crystal structure, […] Å; format: binding; conditions: co-purified from E. coli, bound above heme at Arg244; pH 8.0 protein buffer
SMILES,X-band EPR and UV-visible spectroscopy (CYP152K6 [1]),"X-ray crystal structure, 1.3 Å (CYP152K6 [2])"
CCCCCCCCCCCC(=O)O [dodecanoic acid],the addition of dodecanoic acid alters the equilibria between the three major components,–
CCCCCCCCCCCCCC(=O)O [tetradecanoic acid],–,The final model of CYP152K6 in complex with tetradecanoic acid has been deposited
